From patent US12533390B2, “Methods and compositions for treatment of Endothelin B receptor expressing tumors” (ENB Therapeutics, Inc., priority 2015, dated 2026)
“Also recorded” adds a separate entry of the source.

Columns and labels:
[1] = system: melanoma cell lines overexpressing ETBR; test: Mouse melanoma brain metastasis model, xenografts of ETBR-overexpressing melanoma cell lines; type: in vivo, mice; conditions: A192621 60 mg/kg/day
Description: FIGS. 5A, 5B, 5C, 5D, and 5E. ETBR antagonist inhibits melanoma brain metastasis in mice. […] In this study, lentiviral vectors were used to overexpress ETBR in melanoma cell lines, which were in turn used to implant xenografts in mice.
A192621 inhibits melanoma brain metastasis in mice (FIGS. 5A, 5B, 5C, 5D, and 5E). […] A192621 was administered at a dose of 60 mg/kg/day using a mouse melanoma model. […] In this study, lentiviral vectors were used to overexpress ETBR in melanoma cell lines, which were in turn used to implant xenografts in mice. […]

[2] = system: SKMEL28 human melanoma cells; test: SKMEL28 human melanoma xenograft in mice, tumor weight and lung metastases; type: in vivo
Description: BQ788 inhibits melanoma growth and metastasis (FIGS. 4A and 4B). […] Mice were implanted with 1×10^6 SKMEL28 human melanoma cells. Tumors were established for 10 days until palpable then 120 ng ([…]) BQ788 dissolved in DMSO was injected IP 3× per week x 6 weeks. Mice were then sacrificed and lungs harvested and tumors weighed. A 75% reduction in tumor weight was observed.

ETBR = target: T1, ETBR (Homo sapiens, UniProt P24530); conditions: ETBR antagonist, no method given, cited from earlier work
T1 sequence (P24530 27-442): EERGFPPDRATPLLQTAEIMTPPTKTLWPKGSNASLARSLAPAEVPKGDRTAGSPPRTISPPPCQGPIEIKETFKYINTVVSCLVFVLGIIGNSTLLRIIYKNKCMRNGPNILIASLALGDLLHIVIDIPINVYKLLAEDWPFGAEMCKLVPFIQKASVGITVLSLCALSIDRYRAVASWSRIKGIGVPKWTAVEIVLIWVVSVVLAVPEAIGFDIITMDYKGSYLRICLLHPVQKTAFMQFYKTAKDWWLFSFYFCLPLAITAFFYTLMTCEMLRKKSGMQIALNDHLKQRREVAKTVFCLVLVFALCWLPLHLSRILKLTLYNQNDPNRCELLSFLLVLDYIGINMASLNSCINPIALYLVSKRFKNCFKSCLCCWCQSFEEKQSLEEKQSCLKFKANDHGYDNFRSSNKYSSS

[3] = Body weight of athymic nude mice under intranasal BQ788 over 42 days; type: in vivo
Description: FIG. 9. ETAR antagonist and Niacinamide mitigate weight loss from BQ788. Six week old athymic nude mice were administered the ETBR antagonist BQ788 intranasally in 20% DMSO at the indicated ascending doses over a period of 42 days. One group was additionally administered the ETAR antagonist Macitentan orally at a dose of 5 mg/kg daily. The drinking water of these mice was supplemented with the B vitamin niacinamide at a concentration of 0.3 mg/mL. […] Animals thus treated were able to maintain body weight throughout the study. Co-administration of ETAR antagonists and niacinamide with ETBR antagonists mitigated the adverse effects of ETBR antagonists when administered for therapeutic purposes.
ETAR antagonist and Niacinamide mitigate weight loss from BQ788 ([…]). Six week old athymic nude mice (n=3 per group) were administered the ETBR antagonist BQ788 intranasally in 20% DMSO at the indicated ascending doses over a period of 42 days. One group was additionally administered the ETAR antagonist Macitentan orally at a dose of 5 mg/kg daily. The drinking water of these mice was supplemented with the B vitamin niacinamide at a concentration of 0.3 mg/mL. […] Animals thus treated were able to maintain body weight throughout the study. […]

[4] = system: A375 human melanoma cells; test: Subcutaneous A375 human melanoma xenograft in Nu/J nude mice; type: in vivo; conditions: Dabrafenib 100 mg/Kg PO daily, alone or with BQ788 600 ng IP TIW; A375 tumors 150-200 mm3 at start
Description: FIG. 7. BQ788 synergizes with Dabrafenib in vivo. A375 human melanoma cells were implanted subcutaneously into the rear flank of Nu/J nude mice and allowed to grow to 150 mm3-200 mm3 prior to randomization and initiation of treatment. The mice received the following treatments: (1) vehicle (n=8), (2) Dabrafenib 100 mg/Kg PO daily (n=5), and (3) Dabrafenib+BQ788 600 ng IP TIW (n=5).
BQ788 synergizes with a bRAF inhibitor in vivo (FIG. 7). A375 human melanoma cells (3×10^6) were implanted subcutaneously into the rear flank of Nu/J nude mice and allowed to grow to 150 mm3-200 mm3 prior to randomization and initiation of treatment. The treatment groups were as follows: (1) vehicle (n=8), Dabrafenib 100 mg/Kg PO daily (n=5), (2) Dabrafenib+BQ788 600 ng IP 3 x per week (n=5).

SMILES: CCCOc1ccc([C@H]2[C@H](C(=O)O)[C@@H](c3ccc4c(c3)OCO4)CN2CC(=O)Nc2c(CC)cccc2CC)cc1 [A192621, (2R,3R,4S)-4-(1,3-benzodioxol-5-yl)-1-[2-(2,6-diethylanilino)-2-oxoethyl]-2-(4-propoxyphenyl) pyrrolidine-3-carboxylic acid]
- CNS melanoma tumors [1]: shrinks CNS melanoma tumors
- brain melanoma metastases [1]: shrinks brain melanoma metastases
- survival [1]: increases survival

SMILES: CCCC[C@@H](NC(=O)[C@@H](Cc1cn(C(=O)OC)c2ccccc12)NC(=O)[C@H](CC(C)(C)C)NC(=O)N1[C@H](C)CCC[C@@H]1C)C(=O)[O][Na+] [BQ788]
- reduction in tumor weight ([2]; 120 ng (~60 μg/kg) BQ788 in DMSO IP 3x per week x 6 weeks, SKMEL28 tumors in mice): 75%
- clearance of lung metastases ([2]; 120 ng BQ788 IP 3x per week x 6 weeks, lung specimens vs control mice): > 95%
- IC50 (ETBR; for BQ788 printed as inhibitor of ETBR-related melanoma cell growth): 1.2 nM
- Ki (ETBR): 17.8 nM
- average weight loss relative to baseline body weight ([3]; BQ788 alone intranasally in 20% DMSO, ascending doses, end of 42 day study): 5%
- effect on body weight / thriving ([3]; BQ788 intranasally, ascending doses over 42 days, with or without Macitentan 5 mg/kg orally daily and niacinamide 0.3 mg/mL in drinking water): failed to thrive

SMILES: CC(C)(C)c1nc(-c2cccc(NS(=O)(=O)c3c(F)cccc3F)c2F)c(-c2ccnc(N)n2)s1 [Dabrafenib]
- tumor growth [4]: retarded the growth of tumors; also recorded: retarded tumor growth
